Source: US6242455A, “Pyrimidin-2,4,6-trion derivatives, method for producing the same and medicinal products containing these compounds” (Roche Diagnostics GmbH, priority 1997, dated 2001)

Molecular target: T1, Angiotensin-converting enzyme from rabbit lung (Oryctolagus cuniculus, UniProt P12822)
T1 construct: purchased Fluka; host or cells: rabbit lung
T1 sequence (P12822 34-1310): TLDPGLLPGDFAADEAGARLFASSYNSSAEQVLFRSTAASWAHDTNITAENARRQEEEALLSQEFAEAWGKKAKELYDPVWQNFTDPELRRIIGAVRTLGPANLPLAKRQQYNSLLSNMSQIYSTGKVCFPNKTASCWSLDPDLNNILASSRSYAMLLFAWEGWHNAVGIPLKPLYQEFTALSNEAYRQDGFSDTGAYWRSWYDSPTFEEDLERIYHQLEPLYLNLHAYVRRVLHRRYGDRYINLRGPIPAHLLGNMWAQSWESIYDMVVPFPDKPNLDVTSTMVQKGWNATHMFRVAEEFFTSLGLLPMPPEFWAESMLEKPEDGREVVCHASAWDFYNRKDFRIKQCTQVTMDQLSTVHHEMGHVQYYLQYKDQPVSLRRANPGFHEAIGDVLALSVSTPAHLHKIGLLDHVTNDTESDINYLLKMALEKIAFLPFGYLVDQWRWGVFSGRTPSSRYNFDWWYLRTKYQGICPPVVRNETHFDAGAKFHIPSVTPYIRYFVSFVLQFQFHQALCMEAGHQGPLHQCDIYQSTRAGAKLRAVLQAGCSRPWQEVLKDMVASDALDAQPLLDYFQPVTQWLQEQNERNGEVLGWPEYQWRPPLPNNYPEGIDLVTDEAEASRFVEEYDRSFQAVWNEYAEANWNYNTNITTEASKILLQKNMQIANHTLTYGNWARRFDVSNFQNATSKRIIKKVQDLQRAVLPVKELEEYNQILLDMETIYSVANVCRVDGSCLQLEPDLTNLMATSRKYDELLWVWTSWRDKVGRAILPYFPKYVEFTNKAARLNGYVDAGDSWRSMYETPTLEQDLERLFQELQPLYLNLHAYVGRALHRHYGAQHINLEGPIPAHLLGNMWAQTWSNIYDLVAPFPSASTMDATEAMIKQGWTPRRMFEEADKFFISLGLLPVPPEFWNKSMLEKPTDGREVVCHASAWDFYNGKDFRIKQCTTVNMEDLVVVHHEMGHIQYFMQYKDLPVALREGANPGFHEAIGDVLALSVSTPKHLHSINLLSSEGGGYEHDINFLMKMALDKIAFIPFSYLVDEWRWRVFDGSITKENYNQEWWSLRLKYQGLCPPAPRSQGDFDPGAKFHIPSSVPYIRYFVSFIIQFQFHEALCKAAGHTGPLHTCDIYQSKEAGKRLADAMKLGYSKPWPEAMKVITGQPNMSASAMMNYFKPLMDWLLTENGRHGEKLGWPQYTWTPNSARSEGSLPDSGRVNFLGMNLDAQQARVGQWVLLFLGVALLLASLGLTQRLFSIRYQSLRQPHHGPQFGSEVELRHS
Test: ACE-fluorescence assay for the determination of the IC50 value
Assay type: biochemical
Details: substrate Abz-Gly-Phe(NO2)-Pro 20 μM, pH 8.0, 36° C., inhibitor 0 to 100 μM
Excerpt: ACE-fluorescence assay for the determination of the IC50 value
Literature: Amos Carmel and Arieh Yaron, Eur. J. Biochem. […], 265-273 (1978). An Intramolecularly Quenched Fluorescent Tripeptide as a Fluorogenic Substrate of Angiotensin-I-Converting Enzyme and of Bacterial Dipeptidyl Carboxypeptidase.
Enzyme: Angiotensin-converting enzyme from rabbit lung (EC.3.4.15.1), Fluka (3.3 U/μg)
Substrate: Abz-Gly-Phe(NO2)-Pro, M-1100 Bachem
Assay buffer: 0.05 Tris-HCl
Excitation: 360 nm (excitation slit: 8 nm)
Emission: 410 nm (emission slit: 10 nm)
Substrate stock solution: […] in assay buffer
Enzyme stock solution: […] assay buffer
Inhibitor stock solution: 1 mM in DMSO diluted in assay buffer
Measuring cuvette: 50 μl substrate (yields 20 μM)
0 to 100 μl inhibitor stock solution […]
fill up remainder to 1 ml
Substrate, inhibitor and buffer are added together in a heated measuring cuvette and the enzyme reaction is started by addition of enzyme. The increase in fluorescence over time (200 s) is monitored in a time scan. The respective initial rate is determined from the increase.
The IC50 value can be determined as follows:
V0 =initial rate without inhibitor
[I]=inhibitor concentration

CC(C)(C)C(C(=O)O)C(=O)NC1(c2ccccc2)C(=O)NC(=O)NC1=O (stereo not shown) [Example 4, 3. 3-Dimethyl-2-(2,4,6-trioxo-5-phenyl-hexahydro-pyrimidin-5-ylcarbamoyl)-butyric acid]
IC50: 159 µM
